Reference: patent US20120071475A1, “UREA DERIVATIVES HAVING PI3K-INHIBITING ACTIVITY” (SHIONOGI & CO., LTD., priority 2009, published 2012)

Key:
PI3Kγ = PI3Kγ (Homo sapiens, UniProt P48736); assay: PI3Kγ inhibitory activity (PI3-kinase HTRF assay, inhibition ratio); format: biochemical; details: compound at 10 μmol/L; for inhibition at 10 µM: 0.5 h, read-out: PI3Kg Inhibition Ratio % (10 μM)
Procedure: For each compound synthesized in the above Examples, PI3Kγ inhibitory activity was measured.
The PI3Kγ inhibitory activity of a compound was evaluated using PI3-kinase HTRF™ assay (Millipore) according to the following procedure:
To each well of a testing plate, 5 μL of a compound solution containing 10% DMSO (40 μmol/L as the concentration of the compound), 5 μL of a substrate solution (40 μmol/L phosphatidylinositol (4,5)-bisphosphate, 20 mmol/L MgCl2, 10 mmol/L DTT), and 5 μL of an enzyme solution (80 μg/mL PI-3 kinase y, 10 mmol/L MgCl2, 5 mmol/L DTT) were added, and then allowed to stand for 10 minutes.
Then, 5 μL of a reaction solution (40 μmol/L ATP, 10 mmol/L MgCl2, 5 mmol/L DTT) was added thereto. After reacting for 30 minutes at room temperature, 5 μL of a solution containing EDTA and biotinylated phosphatidylinositol (3,4,5)-triphosphate was added to quench the reaction.
5 μL of a detection reagent containing a europium-labeled anti-GST antibody, the GST-tagged PH domain, and allophycocyanin-labeled streptavidin was added thereto. After 18 hours, HTRF (excitation wavelength: 330 nm, measured wavelengths: 620 nm and 665 nm) was measured.
HTRF ratio was defined as the value obtained by dividing the amount of fluorescence obtained at the measured wavelength 665 nm by the amount of fluorescence obtained at 620 nm. The HTRF ratio in the absence of a compound was defined as 100% activity and the HTRF ratio in the absence of PI-3 kinase y was defined as 0% activity to calculate an inhibition ratio, which was defined as the PI3Kγ inhibitory activity of a compound at 10 μmol/L.

[1] = Metabolic stability test (pooled human liver microsome); format: in vitro ADME; details: percentage of test compound remained after 30 minutes, pooled human liver microsome 0.5 mg protein/mL, 1 mmol/L NADPH, 37° C.; for hLMS_ox(at 0.5 μM) %: compound 0.5 μM
Procedure: After a subject compound was reacted for a certain time using a pooled human liver microsome commercially available, a reacted sample and an unreacted sample are compared to calculate a survival ratio, and then the degree of metabolism in the liver was evaluated.
0.2 mL of a buffer solution (50 mmol/L of Tris-HCl in pH 7.4, 150 mmol/L of potassium chloride, and 10 mmol/L of magnesium chloride) containing a human liver microsome of 0.5 mg protein/mL was reacted in the presence of 1 mmol/L NADPH at 37° C. for 0 or 30 minutes (oxidative reaction). After reacting, 50 μL of the reaction solution was added to 100 μL of a solution of methanol/acetonitrile (1/1 (v/v)), mixed, and then centrifuged at 3000 rpm for 15 minutes. The test compound in the supernatant was quantitated with LC/MS/MS. The amount of the compound at a reaction time of 0 minute was defined as 100% and, based on that, the percentage of the test compound remained after reacting for 30 minutes was calculated.

Chain of PI3Kγ (P48736 whole entry, species assumed): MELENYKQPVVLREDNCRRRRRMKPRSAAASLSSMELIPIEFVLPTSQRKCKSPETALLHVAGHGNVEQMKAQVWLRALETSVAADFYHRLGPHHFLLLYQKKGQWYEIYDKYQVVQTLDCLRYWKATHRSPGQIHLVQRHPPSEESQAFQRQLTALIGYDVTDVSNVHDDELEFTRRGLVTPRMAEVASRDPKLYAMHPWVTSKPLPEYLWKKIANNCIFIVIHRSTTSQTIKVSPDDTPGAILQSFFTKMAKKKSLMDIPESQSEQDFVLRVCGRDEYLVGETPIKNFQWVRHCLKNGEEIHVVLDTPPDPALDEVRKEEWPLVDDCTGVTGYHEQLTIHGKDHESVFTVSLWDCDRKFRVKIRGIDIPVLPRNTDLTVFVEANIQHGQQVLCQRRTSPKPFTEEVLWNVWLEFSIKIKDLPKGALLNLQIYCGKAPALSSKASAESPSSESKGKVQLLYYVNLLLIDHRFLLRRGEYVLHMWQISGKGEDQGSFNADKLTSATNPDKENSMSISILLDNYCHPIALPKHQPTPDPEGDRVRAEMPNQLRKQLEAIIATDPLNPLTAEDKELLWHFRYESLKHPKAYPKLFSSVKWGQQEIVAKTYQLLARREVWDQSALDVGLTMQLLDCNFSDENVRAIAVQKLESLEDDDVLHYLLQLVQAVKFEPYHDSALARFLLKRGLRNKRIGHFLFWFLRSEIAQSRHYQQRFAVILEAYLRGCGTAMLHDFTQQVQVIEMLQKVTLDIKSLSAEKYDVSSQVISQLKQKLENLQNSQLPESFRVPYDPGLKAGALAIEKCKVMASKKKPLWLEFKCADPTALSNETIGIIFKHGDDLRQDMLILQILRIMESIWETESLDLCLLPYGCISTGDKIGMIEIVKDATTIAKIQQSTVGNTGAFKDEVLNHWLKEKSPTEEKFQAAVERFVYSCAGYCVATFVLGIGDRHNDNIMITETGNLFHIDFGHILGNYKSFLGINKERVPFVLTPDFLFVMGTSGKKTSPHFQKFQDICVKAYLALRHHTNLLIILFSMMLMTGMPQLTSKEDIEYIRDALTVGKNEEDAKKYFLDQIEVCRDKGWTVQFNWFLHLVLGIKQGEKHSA

| SMILES | inhibition at 10 µM (PI3Kγ) [%] | further results |
| --- | --- | --- |
| COc1cc(N2CCc3nc(NC(=O)Nc4ccccc4C(=O)N(C)C(C)(C)C)sc3C2)nc(OC)n1 [Compound I-11] | 94 | – |
| COc1cc(N2CCc3nc(NC(=O)Nc4ccccc4C(=O)NC(C)CO)sc3C2)nc(OC)n1 (stereo not drawn) [Compound I-87] | ≥ 95 | hLMS_ox(at 0.5 μM) % [1]: 91.9% |
| COc1cc(N2CCc3nc(NC(=O)Nc4ccccc4C(=O)NCCO)sc3C2)nc(OC)n1 [Compound I-85] | ≥ 95 | hLMS_ox(at 0.5 μM) % [1]: 90.2% |
| COC(=O)c1ccccc1NC(=O)Nc1nc2c(s1)CN(c1cc(OC)nc(OC)n1)CC2 [Compound I-6] | ≥ 95 | – |
| COc1cc(N2CCc3nc(NC(=O)Nc4ccccc4C(=O)NC(C)(C)CO)sc3C2)nc(OC)n1 [Compound I-15] | 94 | – |
| COc1cc(N2CCc3nc(NC(=O)Nc4ccc(F)cc4C(=O)NC(C)C)sc3C2)nc(OC)n1 [Compound I-32] | ≥ 95 | – |
| COc1cc(N2CCc3nc(NC(=O)Nc4ccccc4NC(=O)C(C)(C)C)sc3C2)nc(OC)n1 [Compound I-44] | ≥ 95 | – |
| COc1cc(N2CCc3nc(NC(=O)Nc4ccccc4C(=O)OC(C)(C)C)sc3C2)nc(OC)n1 [Compound I-3] | ≥ 95 | hLMS_ox(at 2 μM) % ([1]; compound 2 μM): 82% |
| COc1cc(N2CCc3nc(NC(=O)Nc4ccccc4OCC(C)C)sc3C2)nc(OC)n1 [Compound I-47] | ≥ 95 | – |
| COc1cc(N2CCc3nc(NC(=O)Nc4ccccc4C(=O)CCC(C)C)sc3C2)nc(OC)n1 [Compound I-66] | ≥ 95 | – |
| COc1nccc(N2CCc3nc(NC(=O)Nc4ccccc4OCCC(C)C)sc3C2)n1 [Compound I-96] | ≥ 95 | – |
| COCC(C)NC(=O)c1ccccc1NC(=O)Nc1nc2c(s1)CN(c1cc(OC)nc(OC)n1)CC2 (stereo not drawn) [Compound I-18] | 94 | – |
| COc1cc(N2CCc3nc(NC(=O)Nc4ccccc4C(=O)NC(C)(C)C#N)sc3C2)nc(OC)n1 [Compound I-25] | ≥ 95 | – |
| COC(=O)c1ccncc1NC(=O)Nc1nc2c(s1)CN(c1cc(OC)nc(OC)n1)CC2 [Compound I-21] | 74 | – |
| COc1cc(N2CCc3nc(NC(=O)N[C@@H]4C[C@H]4C(=O)NC(C)C)sc3C2)nc(OC)n1 [Compound I-130] | – | hLMS_ox(at 0.5 μM) % [1]: 104% |
| COc1cc(N2CCc3nc(NC(=O)Nc4ccsc4C(=O)NC(C)(C)C)sc3C2)nc(OC)n1 [Compound I-26] | ≥ 95 | – |
| COC(=O)c1ccsc1NC(=O)Nc1nc2c(s1)CN(c1cc(OC)nc(OC)n1)CC2 [Compound I-1] | 79 | – |
| COc1cc(N2CCc3nc(NC(=O)Nc4ccccc4CC(C)C)sc3C2)nc(OC)n1 [Compound I-68] | ≥ 95 | – |
| COC(=O)c1sccc1NC(=O)Nc1nc2c(s1)CN(c1cc(OC)nc(OC)n1)CC2 [Compound I-2] | 69 | – |
| COc1cc(N2CCc3nc(NC(=O)Nc4ccccc4C(=O)N4CCCCC4)sc3C2)nc(OC)n1 [Compound I-8] | 93 | – |
| COC(=O)C(C)(C)NC(=O)c1ccccc1NC(=O)Nc1nc2c(s1)CN(c1cc(OC)nc(OC)n1)CC2 [Compound I-17] | ≥ 95 | – |
| COc1cc(N2CCc3nc(NC(=O)Nc4ccccc4C(=O)NN(C)C)sc3C2)nc(OC)n1 [Compound I-194] | – | PI3Kg Inhibition Ratio % (10 μM) (PI3Kγ): 92% |

The next lines start with results.

| inhibition at 10 µM (PI3Kγ) [%] | SMILES | further results |
| --- | --- | --- |
| 87 | C[C@@H](CO)NC(=O)c1ccccc1NC(=O)Nc1nc2c(s1)CN(c1ccc(C(F)(F)F)cc1)CC2 [Compound I-206] | – |
| 85 | CC(C)NC(=O)c1nn(C)cc1NC(=O)Nc1nc2c(s1)CN(c1cncc(C(F)(F)F)c1)CC2 [Compound I-132] | – |
| 78 | COc1cc(N2CCc3nc(NC(=O)Nc4cccc5c4C(=O)N(C(C)C)C5)sc3C2)nc(OC)n1 [Compound I-201] | – |
| ≥ 95 | CC(=O)c1cccc(-c2ccc3nc(NC(=O)Nc4ccccc4OCCC(C)C)sc3c2)c1 [Compound I-214] | – |
| 88 | CC(=O)c1cccc(-c2ccc3nc(NC(=O)Nc4ccccc4OCCC(C)C)nn3c2)c1 [Compound I-217] | – |
| 79 | Cc1cc(N2CCc3nc(NC(=O)Nc4ccccc4C(=O)NC(C)C)sc3C2)nc(C#N)n1 [Compound I-181] | hLMS_ox(at 0.5 μM) % [1]: 85.9% |
| ≥ 95 | CC(CO)NC(=O)c1ccccc1NC(=O)Nc1nc2c(s1)CN(c1ccnc(F)c1)CC2 (stereo not drawn) [Compound I-122] | hLMS_ox(at 0.5 μM) % [1]: 90.6% |
| ≥ 95 | COc1ccc(-c2ccc3nc(NC(=O)Nc4ccccc4OCCC(C)C)sc3c2)cn1 [Compound I-215] | – |
| ≥ 95 | COc1cc(N2CCc3nc(NC(=O)Nc4ccccc4C(O)CC(C)C)sc3C2)nc(OC)n1 (stereo not drawn) [Compound I-116] | – |
| 83 | CO/N=C(\C)c1ccccc1NC(=O)Nc1nc2c(s1)CN(c1cc(OC)nc(OC)n1)CC2 [Compound I-196] | – |
| 88 | COc1ccc(-c2cc(NC(=O)Nc3ccccc3C(=O)NC(C)C)nn2C)cn1 [Compound I-228] | – |
| ≥ 95 | CC(=O)c1cccc(-c2cc(NC(=O)Nc3ccccc3OCCC(C)C)nn2C)c1 [Compound I-222] | – |
| 90 | COc1ccc(-c2ccc3nc(NC(=O)Nc4ccccc4OCCC(C)C)nn3c2)cn1 [Compound I-218] | – |
| ≥ 95 | CC(CO)NC(=O)c1ccccc1NC(=O)Nc1nc2c(s1)CN(c1ccc(F)c(F)c1)CC2 (stereo not drawn) [Compound I-118] | hLMS_ox(at 0.5 μM) % [1]: 89.8% |
| 93 | Cc1cc(N2CCc3nc(NC(=O)Nc4cn(C)nc4C(=O)NC(C)C)sc3C2)nc(Cl)n1 [Compound I-164] | – |
| 85 | COc1cc(N2CCc3nc(NC(=O)Nc4ccccc4S(=O)(=O)NC(C)C)sc3C2)nc(OC)n1 [Compound I-171] | – |
| 93 | C[C@H](CO)NC(=O)c1ccccc1NC(=O)Nc1nc2c(s1)CN(c1ccc(C(F)(F)F)cc1)CC2 [Compound I-207] | hLMS_ox(at 0.5 μM) % [1]: 93.5% |
| ≥ 95 | COc1ccc(-c2ccc3nc(NC(=O)Nc4ccccc4OCCC(C)C)sc3n2)cn1 [Compound I-220] | – |
| ≥ 95 | O=C(Nc1nc2c(s1)CN(c1ccnc(Cl)n1)CC2)Nc1ccccc1C(=O)NCCO [Compound I-99] | hLMS_ox(at 0.5 μM) % [1]: 90.6% |
| 75 | CC(C)NC(=O)c1nn(C)cc1NC(=O)Nc1nc2c(s1)CN(c1cc[nH]c(=O)c1)CC2 [Compound I-184] | hLMS_ox(at 0.5 μM) % [1]: 98.1% |
| 88 | COc1cc(N2CCc3nc(NC(=O)Nc4ccccc4O)sc3C2)nc(OC)n1 [Compound I-177] | – |
| ≥ 95 | CC(CO)NC(=O)c1ccccc1NC(=O)Nc1nc2c(s1)CN(c1cc(F)cc(F)c1)CC2 (stereo not drawn) [Compound I-119] | hLMS_ox(at 0.5 μM) % [1]: 90.8% |
